Measurements reported in patent US10457691B2, “Macrocyclic kinase inhibitors and uses thereof” (Dana-Farber Cancer Institute, Inc., priority 2014, dated 2019).

Key:
Format in all cases: biochemical
PKD1 = PKD1 (Homo sapiens, UniProt Q15139); assay: Protein kinase assay ([γ-32P] ATP), PKD1; details: read-out: Activity of the protein kinase when treated with compound I-1 (% control)
Protocol: (§1) In another set of experiments, the activities of the compounds described herein against various protein kinases were determined according to the methods reported in Hastie et al., Nature Protocols, 2006, 1, 968-971.
(§2) Enzyme dilution buffer. This buffer consisted of 50 mM Tris-HCl, pH 7.5, 0.1 mM EGTA, 1 mg ml^−1 bovine serum albumin and 0.1% (vol/vol) 2-mercaptoethanol.
(§3) 10× concentrated assay buffer. An assay buffer of 500 mM Tris-HCl, pH 7.5, 1 mM EGTA, and 100 mM magnesium acetate was used for assay of a wide variety of protein kinases. In some experiments, other cofactors were included (e.g., calcium ions and calmodulin were included for assay of calcium-calmodulindependent protein kinases).
(§4) 1 mM [γ-^32P] ATP. The specific activity of the [γ-^32P] ATP solution was 1×10^5 to 1×10^6 c.p.m. per nmol depending on what was needed to produce an optimal signal/noise ratio. […] To measure the concentration of ATP, a sample of such a stock solution was diluted to 20 μM, and the absorbance of the diluted sample was measured at 259 nm. The absorbance of a 20-μM stock solution of ATP at 259 nm was about 0.31. […] ATP to produce a radioactivity of 1×10^5 to 1×10^6 c.p.m. per nmol. […]
(§5) 13) Measure radioactivity in the samples by Cerenkov counting (e.g., without liquid scintillation fluid) in a liquid scintillation counter using a “^32P program”. […]

EPH-B3 = EPH-B3 (Homo sapiens, UniProt P54753); assay: Protein kinase assay ([γ-32P] ATP), EPH-B3; details: read-out: Activity of the protein kinase when treated with compound I-1 (% control)
Protocol: as §1, §2, §3, §4, §5

PHK = assay: Protein kinase assay ([γ-32P] ATP), PHK
Protocol: as §1, §2, §3, §4, §5

CHK2 = CHK2 (Homo sapiens, UniProt O96017); assay: Protein kinase assay ([γ-32P] ATP), CHK2; details: read-out: Activity of the protein kinase when treated with compound I-1 (% control)
Protocol: as §1, §2, §3, §4, §5

PIM1 = PIM1 (Homo sapiens, UniProt P11309); assay: Protein kinase assay ([γ-32P] ATP), PIM1; details: read-out: Activity of the protein kinase when treated with compound I-1 (% control)
Protocol: as §1, §2, §3, §4, §5

GSK3b = GSK3b (Homo sapiens, UniProt P49841); assay: Protein kinase assay ([γ-32P] ATP), GSK3b; details: read-out: Activity of the protein kinase when treated with compound I-1 (% control)
Protocol: as §1, §2, §3, §4, §5

HER4 = HER4 (Homo sapiens, UniProt Q15303); assay: Protein kinase assay ([γ-32P] ATP), HER4; details: read-out: Activity of the protein kinase when treated with compound I-1 (% control)
Protocol: as §1, §2, §3, §4, §5

CLK2 = CLK2 (Homo sapiens, UniProt P49760); assay: Protein kinase assay ([γ-32P] ATP), CLK2; details: read-out: Activity of the protein kinase when treated with compound I-1 (% control)
Protocol: as §1, §2, §3, §4, §5

FGF-R1 = FGF-R1 (Homo sapiens, UniProt P11362); assay: Protein kinase assay ([γ-32P] ATP), FGF-R1; details: read-out: Activity of the protein kinase when treated with compound I-1 (% control)
Protocol: as §1, §2, §3, §4, §5

PKCγ = PKCγ (Homo sapiens, UniProt P05129); assay: Protein kinase assay ([γ-32P] ATP), PKCγ; details: read-out: Activity of the protein kinase when treated with compound I-1 (% control)
Protocol: as §1, §2, §3, §4, §5

RIPK2 = RIPK2 (Homo sapiens, UniProt O43353); assay: Protein kinase assay ([γ-32P] ATP), RIPK2; details: read-out: Activity of the protein kinase when treated with compound I-1 (% control)
Protocol: as §1, §2, §3, §4, §5

ERK8 = ERK8 (Homo sapiens, UniProt Q8TD08); assay: Protein kinase assay ([γ-32P] ATP), ERK8; details: read-out: Activity of the protein kinase when treated with compound I-1 (% control)
Protocol: as §1, §2, §3, §4, §5

MNK1 = MNK1 (Homo sapiens, UniProt Q9BUB5); assay: Protein kinase assay ([γ-32P] ATP), MNK1; details: read-out: Activity of the protein kinase when treated with compound I-1 (% control)
Protocol: as §1, §2, §3, §4, §5

ASK1 = ASK1 (Homo sapiens, UniProt Q99683); assay: Protein kinase assay ([γ-32P] ATP), ASK1; details: read-out: Activity of the protein kinase when treated with compound I-1 (% control)
Protocol: as §1, §2, §3, §4, §5

PIM3 = PIM3 (Homo sapiens, UniProt Q86V86); assay: Protein kinase assay ([γ-32P] ATP), PIM3; details: read-out: Activity of the protein kinase when treated with compound I-1 (% control)
Protocol: as §1, §2, §3, §4, §5

LKB1 = LKB1 (Homo sapiens, UniProt Q15831); assay: Protein kinase assay ([γ-32P] ATP), LKB1; details: read-out: Activity of the protein kinase when treated with compound I-1 (% control)
Protocol: as §1, §2, §3, §4, §5

PAK6 = PAK6 (Homo sapiens, UniProt Q9NQU5); assay: Protein kinase assay ([γ-32P] ATP), PAK6; details: read-out: Activity of the protein kinase when treated with compound I-1 (% control)
Protocol: as §1, §2, §3, §4, §5

[1] = 0.1 μM of compound I-1, DMSO control = 100%
[2] = 1 μM of compound I-1, DMSO control = 100%

Chain of MNK1 (Q9BUB5 whole entry): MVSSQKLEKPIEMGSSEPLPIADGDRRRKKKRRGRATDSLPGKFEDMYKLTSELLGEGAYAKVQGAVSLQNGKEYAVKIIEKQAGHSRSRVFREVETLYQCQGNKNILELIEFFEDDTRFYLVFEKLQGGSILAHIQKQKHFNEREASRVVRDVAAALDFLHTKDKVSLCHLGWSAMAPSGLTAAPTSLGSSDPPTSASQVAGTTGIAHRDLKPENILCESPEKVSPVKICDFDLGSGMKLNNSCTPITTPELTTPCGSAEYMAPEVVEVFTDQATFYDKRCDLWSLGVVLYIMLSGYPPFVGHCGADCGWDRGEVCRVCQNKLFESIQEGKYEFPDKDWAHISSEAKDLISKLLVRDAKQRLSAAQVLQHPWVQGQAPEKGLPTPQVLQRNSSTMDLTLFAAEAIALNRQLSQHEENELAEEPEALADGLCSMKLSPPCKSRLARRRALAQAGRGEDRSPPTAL
Chain of CHK2 (O96017 whole entry): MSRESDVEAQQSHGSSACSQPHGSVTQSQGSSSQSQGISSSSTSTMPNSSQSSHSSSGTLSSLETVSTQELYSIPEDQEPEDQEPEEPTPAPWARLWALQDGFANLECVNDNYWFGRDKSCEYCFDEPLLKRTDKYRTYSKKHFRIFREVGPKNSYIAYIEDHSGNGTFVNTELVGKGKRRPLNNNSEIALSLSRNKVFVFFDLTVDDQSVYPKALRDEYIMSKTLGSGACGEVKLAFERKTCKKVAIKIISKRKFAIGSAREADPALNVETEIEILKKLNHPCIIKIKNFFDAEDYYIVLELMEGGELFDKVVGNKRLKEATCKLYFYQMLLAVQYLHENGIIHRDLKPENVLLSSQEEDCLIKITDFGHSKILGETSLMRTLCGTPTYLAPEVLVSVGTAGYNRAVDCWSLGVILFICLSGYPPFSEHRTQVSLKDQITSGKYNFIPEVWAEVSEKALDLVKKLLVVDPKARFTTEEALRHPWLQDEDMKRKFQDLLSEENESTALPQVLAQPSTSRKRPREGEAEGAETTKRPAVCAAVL
Chain of ASK1 (Q99683 whole entry): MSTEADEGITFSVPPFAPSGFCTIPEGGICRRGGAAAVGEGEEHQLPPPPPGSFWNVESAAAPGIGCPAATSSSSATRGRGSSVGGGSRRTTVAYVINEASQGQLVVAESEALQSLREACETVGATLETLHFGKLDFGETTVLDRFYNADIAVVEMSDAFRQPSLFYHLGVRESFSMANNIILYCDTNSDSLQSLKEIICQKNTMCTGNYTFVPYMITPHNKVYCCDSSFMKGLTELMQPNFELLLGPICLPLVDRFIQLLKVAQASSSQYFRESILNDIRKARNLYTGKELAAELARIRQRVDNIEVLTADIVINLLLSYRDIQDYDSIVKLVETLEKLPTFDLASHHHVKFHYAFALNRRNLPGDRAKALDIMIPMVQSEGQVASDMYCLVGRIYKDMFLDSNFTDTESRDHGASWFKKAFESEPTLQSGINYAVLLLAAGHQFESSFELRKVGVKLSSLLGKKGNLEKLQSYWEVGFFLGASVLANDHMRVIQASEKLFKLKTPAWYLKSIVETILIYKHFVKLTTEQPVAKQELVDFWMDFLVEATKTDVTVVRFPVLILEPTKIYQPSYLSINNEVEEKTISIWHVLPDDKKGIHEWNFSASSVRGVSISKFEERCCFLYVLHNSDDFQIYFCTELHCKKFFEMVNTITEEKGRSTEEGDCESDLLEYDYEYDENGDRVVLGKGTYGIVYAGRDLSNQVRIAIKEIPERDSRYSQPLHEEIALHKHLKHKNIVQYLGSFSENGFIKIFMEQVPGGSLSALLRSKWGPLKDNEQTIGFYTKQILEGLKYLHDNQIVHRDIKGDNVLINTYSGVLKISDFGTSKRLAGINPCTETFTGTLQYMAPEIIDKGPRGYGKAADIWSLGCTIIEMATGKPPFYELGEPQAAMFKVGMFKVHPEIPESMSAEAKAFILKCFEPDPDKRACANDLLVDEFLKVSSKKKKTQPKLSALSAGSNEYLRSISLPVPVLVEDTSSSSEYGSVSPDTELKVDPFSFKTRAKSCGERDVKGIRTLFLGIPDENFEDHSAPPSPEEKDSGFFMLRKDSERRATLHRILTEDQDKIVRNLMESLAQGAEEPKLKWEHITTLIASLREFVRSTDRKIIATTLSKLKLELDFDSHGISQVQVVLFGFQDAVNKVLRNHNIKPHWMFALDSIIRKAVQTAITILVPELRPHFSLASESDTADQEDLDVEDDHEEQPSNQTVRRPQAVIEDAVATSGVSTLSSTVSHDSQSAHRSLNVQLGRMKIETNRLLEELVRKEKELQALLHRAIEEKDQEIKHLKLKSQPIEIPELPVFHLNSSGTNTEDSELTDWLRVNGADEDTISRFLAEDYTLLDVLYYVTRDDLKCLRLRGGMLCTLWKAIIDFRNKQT
Chain of LKB1 (Q15831 whole entry): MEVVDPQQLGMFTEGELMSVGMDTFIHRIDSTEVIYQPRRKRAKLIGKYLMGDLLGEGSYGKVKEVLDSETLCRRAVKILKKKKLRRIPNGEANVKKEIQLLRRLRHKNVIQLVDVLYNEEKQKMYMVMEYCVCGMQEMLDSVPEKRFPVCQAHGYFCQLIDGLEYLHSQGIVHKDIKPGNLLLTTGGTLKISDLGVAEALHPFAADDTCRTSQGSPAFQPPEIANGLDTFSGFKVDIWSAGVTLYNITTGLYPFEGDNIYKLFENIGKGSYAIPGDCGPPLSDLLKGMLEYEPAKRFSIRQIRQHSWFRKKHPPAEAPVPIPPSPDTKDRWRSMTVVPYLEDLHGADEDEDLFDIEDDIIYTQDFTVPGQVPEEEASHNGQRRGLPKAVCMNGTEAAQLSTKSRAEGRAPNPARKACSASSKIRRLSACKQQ
Chain of LKB1 (Q7RTN6 whole entry partner): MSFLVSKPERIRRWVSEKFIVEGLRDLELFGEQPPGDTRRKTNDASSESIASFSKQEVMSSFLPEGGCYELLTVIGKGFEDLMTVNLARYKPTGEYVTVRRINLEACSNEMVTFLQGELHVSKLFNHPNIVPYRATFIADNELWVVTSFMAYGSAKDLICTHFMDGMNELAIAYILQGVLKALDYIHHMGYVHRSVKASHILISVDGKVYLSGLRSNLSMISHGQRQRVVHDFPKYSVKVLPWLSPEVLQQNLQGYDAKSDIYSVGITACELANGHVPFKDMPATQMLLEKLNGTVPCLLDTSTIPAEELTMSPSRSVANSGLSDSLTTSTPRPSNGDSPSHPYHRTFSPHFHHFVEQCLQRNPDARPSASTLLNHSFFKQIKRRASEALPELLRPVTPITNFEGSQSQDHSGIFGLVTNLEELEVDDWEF
Chain of LKB1 (Q9Y376 whole entry partner): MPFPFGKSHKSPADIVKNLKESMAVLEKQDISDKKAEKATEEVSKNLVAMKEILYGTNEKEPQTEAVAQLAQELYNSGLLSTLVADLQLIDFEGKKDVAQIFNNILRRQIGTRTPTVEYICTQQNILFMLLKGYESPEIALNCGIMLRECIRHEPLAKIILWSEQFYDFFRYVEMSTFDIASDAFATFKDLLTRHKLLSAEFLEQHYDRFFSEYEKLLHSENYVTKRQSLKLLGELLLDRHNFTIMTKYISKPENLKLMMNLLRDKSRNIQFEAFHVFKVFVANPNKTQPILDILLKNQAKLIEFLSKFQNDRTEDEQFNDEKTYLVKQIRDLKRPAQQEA
Chain of PIM1 (P11309 whole entry): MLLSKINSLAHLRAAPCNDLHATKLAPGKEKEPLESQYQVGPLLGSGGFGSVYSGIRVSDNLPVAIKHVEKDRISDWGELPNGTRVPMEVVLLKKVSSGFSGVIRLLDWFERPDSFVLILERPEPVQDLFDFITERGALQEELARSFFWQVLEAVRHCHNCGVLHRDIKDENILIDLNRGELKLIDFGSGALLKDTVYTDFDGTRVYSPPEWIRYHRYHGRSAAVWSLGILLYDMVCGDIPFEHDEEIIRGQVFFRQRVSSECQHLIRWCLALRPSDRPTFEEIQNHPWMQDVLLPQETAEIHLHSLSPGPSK
Chain of PAK6 (Q9NQU5 whole entry): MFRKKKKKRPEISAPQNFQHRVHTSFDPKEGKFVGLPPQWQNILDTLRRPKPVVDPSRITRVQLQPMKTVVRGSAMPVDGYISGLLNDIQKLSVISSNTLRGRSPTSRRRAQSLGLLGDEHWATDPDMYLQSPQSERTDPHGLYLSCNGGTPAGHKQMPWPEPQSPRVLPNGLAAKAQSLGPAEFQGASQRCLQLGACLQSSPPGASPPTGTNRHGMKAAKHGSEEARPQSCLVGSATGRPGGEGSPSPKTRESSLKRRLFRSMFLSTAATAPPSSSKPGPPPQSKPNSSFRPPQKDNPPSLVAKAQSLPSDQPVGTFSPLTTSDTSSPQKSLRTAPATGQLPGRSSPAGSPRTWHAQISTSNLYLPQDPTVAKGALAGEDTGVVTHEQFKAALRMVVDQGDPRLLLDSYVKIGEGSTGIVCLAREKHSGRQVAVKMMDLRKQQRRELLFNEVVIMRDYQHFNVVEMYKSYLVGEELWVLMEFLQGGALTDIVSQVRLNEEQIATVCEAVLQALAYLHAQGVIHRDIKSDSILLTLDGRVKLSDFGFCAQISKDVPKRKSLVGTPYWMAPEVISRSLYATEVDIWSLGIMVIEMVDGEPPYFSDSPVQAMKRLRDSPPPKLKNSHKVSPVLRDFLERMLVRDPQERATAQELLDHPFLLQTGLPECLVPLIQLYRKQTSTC

Cc1cccc(C)c1NC(=O)N1C/C=C\COc2cccc(c2)Nc2cc1ncn2 [Compound I-1]
remaining activity at 0.1 µM (PKD1; [1]): 63% | remaining activity at 1 µM (PKD1; [2]): 29% | remaining activity at 0.1 µM (EPH-B3; [1]): 25% | remaining activity at 1 µM (EPH-B3; [2]): 2% | Activity of the protein kinase when treated with compound I-1 (% control) (PHK; [1]): 88 % control | Activity of the protein kinase when treated with compound I-1 (% control) (PHK; [2]): 100 % control | remaining activity at 0.1 µM (CHK2; [1]): 107% | remaining activity at 1 µM (CHK2; [2]): 72% | remaining activity at 0.1 µM (PIM1; [1]): 132% | remaining activity at 1 µM (PIM1; [2]): 93% | remaining activity at 0.1 µM (GSK3b; [1]): 101% | remaining activity at 1 µM (GSK3b; [2]): 75% | remaining activity at 0.1 µM (HER4; [1]): 100% | remaining activity at 1 µM (HER4; [2]): 71% | remaining activity at 0.1 µM (CLK2; [1]): 100% | remaining activity at 1 µM (CLK2; [2]): 90% | remaining activity at 0.1 µM (FGF-R1; [1]): 41% | remaining activity at 1 µM (FGF-R1; [2]): 12% | remaining activity at 0.1 µM (PKCγ; [1]): 98% | remaining activity at 1 µM (PKCγ; [2]): 92% | remaining activity at 0.1 µM (RIPK2; [1]): 33% | remaining activity at 1 µM (RIPK2; [2]): 5% | remaining activity at 0.1 µM (ERK8; [1]): 99% | remaining activity at 1 µM (ERK8; [2]): 72% | remaining activity at 0.1 µM (MNK1; [1]): 105% | remaining activity at 1 µM (MNK1; [2]): 90% | remaining activity at 0.1 µM (ASK1; [1]): 117% | remaining activity at 1 µM (ASK1; [2]): 96% | remaining activity at 0.1 µM (PIM3; [1]): 93% | remaining activity at 1 µM (PIM3; [2]): 84% | remaining activity at 0.1 µM (LKB1; [1]): 99% | remaining activity at 1 µM (LKB1; [2]): 65% | remaining activity at 0.1 µM (PAK6; [1]): 101% | remaining activity at 1 µM (PAK6; [2]): 78%
